Test results reported in the supplement of paper PMC10307832.

Columns and labels:
Assay in all cases: relative viability (nuclei count vs DMSO), 5 days (fraction); higher = more cells survive
[1] = compound: Cc1ccc(NC(=O)c2ccc(CN3CCN(C)CC3)cc2)cc1Nc1nccc(-c2cccnc2)n1 [Imatinib] + O=C(c1cc(Cc2n[nH]c(=O)c3ccccc23)ccc1F)N1CCN(C(=O)C2CC2)CC1 [Olaparib] (partner 8 µM)
Procedure, shortened: (§1)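 Relative viability equals treated-well nuclei counts divided by vehicle-well nuclei counts. Counts came from 4× images of lung cancer cell lines grown in 1536-well plates for 5 days after pin-tool dosing on the day after seeding. Dosing used one drug alone or a fixed anchor-drug dose plus five library-drug doses (not always all listed) in √10 steps, and values are medians of duplicate plates.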

[2] = compound: Cc1ccc(NC(=O)c2ccc(CN3CCN(C)CC3)cc2)cc1Nc1nccc(-c2cccnc2)n1 [Imatinib] + COc1cccc2cc(-c3nc([C@H]4CC[C@H](C(=O)O)CC4)n4ncnc(N)c34)[nH]c12 [OSI-027] (partner 0.5 µM)
Procedure, shortened: as §1

[3] = compound: Cc1ccc(NC(=O)c2ccc(CN3CCN(C)CC3)cc2)cc1Nc1nccc(-c2cccnc2)n1 [Imatinib] + Cc1cc(Nc2cc(N3CCN(C)CC3)nc(Sc3ccc(NC(=O)C4CC4)cc3)n2)n[nH]1 [Tozasertib] (partner 0.1 µM)
Procedure, shortened: as §1

[4] = compound: Cc1ccc(NC(=O)c2ccc(CN3CCN(C)CC3)cc2)cc1Nc1nccc(-c2cccnc2)n1 [Imatinib] + CCNC(=O)c1noc(-c2cc(C(C)C)c(O)cc2O)c1-c1ccc(CN2CCOCC2)cc1 [Luminespib] (partner 0.01 µM)
Procedure, shortened: as §1

[5] = compound: Cc1ccc(NC(=O)c2ccc(CN3CCN(C)CC3)cc2)cc1Nc1nccc(-c2cccnc2)n1 [Imatinib] + N=C(N)NC(=N)NCCc1ccccc1 [Phenformin] (partner 250 µM)
Procedure, shortened: as §1

[6] = compound: Cc1ccc(NC(=O)c2ccc(CN3CCN(C)CC3)cc2)cc1Nc1nccc(-c2cccnc2)n1 [Imatinib] + Nc1ncn([C@H]2C[C@H](O)[C@@H](CO)O2)c(=O)n1 [Decitabine] (partner 2 µM)
Procedure, shortened: as §1

[7] = compound: Cc1ccc(NC(=O)c2ccc(CN3CCN(C)CC3)cc2)cc1Nc1nccc(-c2cccnc2)n1 [Imatinib] + COc1cc2c(Oc3ccc(NC(=O)C4(C(=O)Nc5ccc(F)cc5)CC4)cc3F)ccnc2cc1OCCCN1CCOCC1 [Foretinib] (partner 0.25 µM)
Procedure, shortened: as §1

[8] = compound: Cc1ccc(NC(=O)c2ccc(CN3CCN(C)CC3)cc2)cc1Nc1nccc(-c2cccnc2)n1 [Imatinib] + Cc1nc(Nc2ncc(C(=O)Nc3c(C)cccc3Cl)s2)cc(N2CCN(CCO)CC2)n1 [Dasatinib] (partner 0.075 µM)
Procedure, shortened: as §1

[9] = compound: Cc1ccc(NC(=O)c2ccc(CN3CCN(C)CC3)cc2)cc1Nc1nccc(-c2cccnc2)n1 [Imatinib]
Procedure, shortened: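 Viability was defined as treated-well nuclei divided by vehicle-well nuclei, with the median taken over replicate plates. Cells from lung cancer lines sat overnight at 37 °C in 1536-well plates, received five √10-spaced library-drug doses by pinning on vehicle-anchored plates, and grew 5 days without medium change before one-step fixation, permeabilisation and Hoechst staining, 4× imaging and MetaXpress nuclear counts. Only plates with control CV under 25% and at least one doubling were kept.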

[10] = compound: Cc1ccc(NC(=O)c2ccc(CN3CCN(C)CC3)cc2)cc1Nc1nccc(-c2cccnc2)n1 [Imatinib] + C[C@@H](Oc1cc(-c2cnn(C3CCNCC3)c2)cnc1N)c1c(Cl)ccc(F)c1Cl [Crizotinib] (partner 1 µM)
Procedure, shortened: as §1

[11] = compound: Cc1ccc(NC(=O)c2ccc(CN3CCN(C)CC3)cc2)cc1Nc1nccc(-c2cccnc2)n1 [Imatinib] + CC(C)C[C@H](NC(=O)[C@H](Cc1ccccc1)NC(=O)c1cnccn1)B(O)O [Bortezomib] (partner 0.002 µM)
Procedure, shortened: as §1

[12] = compound: Cc1ccc(NC(=O)c2ccc(CN3CCN(C)CC3)cc2)cc1Nc1nccc(-c2cccnc2)n1 [Imatinib] + CC1(C)CCC(c2ccc(Cl)cc2)=C(CN2CCN(c3ccc(C(=O)NS(=O)(=O)c4ccc(N[C@H](CCN5CCOCC5)CSc5ccccc5)c(S(=O)(=O)C(F)(F)F)c4)cc3)CC2)C1 [Navitoclax] (partner 0.5 µM)
Procedure, shortened: as §1

[13] = compound: Cc1ccc(NC(=O)c2ccc(CN3CCN(C)CC3)cc2)cc1Nc1nccc(-c2cccnc2)n1 [Imatinib] + CS(=O)(=O)N1CCN(Cc2cc3nc(-c4cccc5[nH]ncc45)nc(N4CCOCC4)c3s2)CC1 [Pictilisib] (partner 1 µM)
Procedure, shortened: as §1

[14] = compound: Cc1ccc(NC(=O)c2ccc(CN3CCN(C)CC3)cc2)cc1Nc1nccc(-c2cccnc2)n1 [Imatinib] + NC(=O)Nc1cc(-c2cccc(F)c2)sc1C(=O)N[C@H]1CCCNC1 [AZD7762] (partner 0.2 µM)
Procedure, shortened: as §1

[15] = compound: Cc1ccc(NC(=O)c2ccc(CN3CCN(C)CC3)cc2)cc1Nc1nccc(-c2cccnc2)n1 [Imatinib] + CS(=O)(=O)CCNCc1ccc(-c2ccc3ncnc(Nc4ccc(OCc5cccc(F)c5)c(Cl)c4)c3c2)o1 [Lapatinib] (partner 2 µM)
Procedure, shortened: as §1

[16] = compound: Cc1ccc(NC(=O)c2ccc(CN3CCN(C)CC3)cc2)cc1Nc1nccc(-c2cccnc2)n1 [Imatinib] + C[C@]1(O)C[C@@H](c2nc(-c3ccc4ccc(-c5ccccc5)nc4c3)c3c(N)nccn32)C1 [Linsitinib] (partner 1 µM)
Procedure, shortened: as §1

[17] = compound: Cc1ccc(NC(=O)c2ccc(CN3CCN(C)CC3)cc2)cc1Nc1nccc(-c2cccnc2)n1 [Imatinib] + Cc1nc(NC(=O)N2CCC[C@H]2C(N)=O)sc1-c1ccnc(C(C)(C)C(F)(F)F)c1 [Alpelisib] (partner 2 µM)
Procedure, shortened: as §1

## NCI-H522
[1]; first compound 0.2 µM
  relative viability: 0.641
[1]; first compound 0.6325 µM
  relative viability: 0.606
[2]; first compound 0.02 µM
  relative viability: 1.34
[2]; first compound 0.06325 µM
  relative viability: 0.505
[2]; first compound 2 µM
  relative viability: 0.666
[3]; first compound 0.06325 µM
  relative viability: 0.501
[3]; first compound 0.2 µM
  relative viability: 0.524
[3]; first compound 0.6325 µM
  relative viability: 0.553
[3]; first compound 2 µM
  relative viability: 0.588
[4]; first compound 0.02 µM
  relative viability: 1.11
[4]; first compound 0.06325 µM
  relative viability: 1.16
[4]; first compound 0.2 µM
  relative viability: 1.14
[4]; first compound 0.6325 µM
  relative viability: 1.15
[4]; first compound 2 µM
  relative viability: 1.11
[5]; first compound 0.02 µM
  relative viability: 0.679
[5]; first compound 0.06325 µM
  relative viability: 0.554
[5]; first compound 0.2 µM
  relative viability: 0.626
[5]; first compound 0.6325 µM
  relative viability: 0.613
[6]; first compound 0.02 µM
  relative viability: 0.678
[6]; first compound 0.2 µM
  relative viability: 0.616
[6]; first compound 0.6325 µM
  relative viability: 0.577
[6]; first compound 2 µM
  relative viability: 0.675

## NCI-H1623
[2]; first compound 0.02 µM
  relative viability: 0.453
[2]; first compound 0.06325 µM
  relative viability: 0.453
[2]; first compound 0.2 µM
  relative viability: 0.386
[2]; first compound 0.6325 µM
  relative viability: 0.431
[2]; first compound 2 µM
  relative viability: 0.417
[7]; first compound 0.02 µM
  relative viability: 0.872
[7]; first compound 0.06325 µM
  relative viability: 0.811
[7]; first compound 0.2 µM
  relative viability: 0.749
[7]; first compound 0.6325 µM
  relative viability: 0.788
[7]; first compound 2 µM
  relative viability: 0.894
[8]; first compound 0.02 µM
  relative viability: 0.552
[8]; first compound 0.06325 µM
  relative viability: 0.539
[8]; first compound 0.2 µM
  relative viability: 0.482
[8]; first compound 0.6325 µM
  relative viability: 0.537
[8]; first compound 2 µM
  relative viability: 0.538
[3]; first compound 0.02 µM
  relative viability: 0.435
[3]; first compound 0.06325 µM
  relative viability: 0.488
[3]; first compound 0.2 µM
  relative viability: 0.401
[3]; first compound 0.6325 µM
  relative viability: 0.451
[3]; first compound 2 µM
  relative viability: 0.416
[4]; first compound 0.02 µM
  relative viability: 0.509
[4]; first compound 0.06325 µM
  relative viability: 0.522
[4]; first compound 0.2 µM
  relative viability: 0.489
[4]; first compound 0.6325 µM
  relative viability: 0.569
[4]; first compound 2 µM
  relative viability: 0.467
[5]; first compound 0.02 µM
  relative viability: 0.623
[5]; first compound 0.06325 µM
  relative viability: 0.601
[5]; first compound 0.2 µM
  relative viability: 0.535
[5]; first compound 0.6325 µM
  relative viability: 0.573
[5]; first compound 2 µM
  relative viability: 0.571
[9]; 0.02 µM
  relative viability: 0.97
[9]; 0.06325 µM
  relative viability: 0.763
[9]; 0.2 µM
  relative viability: 0.814
[9]; 0.6325 µM
  relative viability: 0.956
[9]; 2 µM
  relative viability: 0.947

## NCI-H1703
[10]; first compound 0.02 µM
  relative viability: 0.773
[10]; first compound 0.06325 µM
  relative viability: 0.88
[10]; first compound 0.2 µM
  relative viability: 0.437
[10]; first compound 0.6325 µM
  relative viability: 0.304
[10]; first compound 2 µM
  relative viability: 0.186
[1]; first compound 0.02 µM
  relative viability: 0.329
[1]; first compound 0.06325 µM
  relative viability: 0.292
[1]; first compound 0.2 µM
  relative viability: 0.262
[1]; first compound 0.6325 µM
  relative viability: 0.146
[1]; first compound 2 µM
  relative viability: 0.177
[11]; first compound 0.02 µM
  relative viability: 0.289
[11]; first compound 0.06325 µM
  relative viability: 0.29
[11]; first compound 0.2 µM
  relative viability: 0.138
[11]; first compound 0.6325 µM
  relative viability: 0.214
[11]; first compound 2 µM
  relative viability: 0.186
[7]; first compound 0.02 µM
  relative viability: 0.329
[7]; first compound 0.06325 µM
  relative viability: 0.397
[7]; first compound 0.2 µM
  relative viability: 0.372
[7]; first compound 0.6325 µM
  relative viability: 0.402
[7]; first compound 2 µM
  relative viability: 0.347
[12]; first compound 0.02 µM
  relative viability: 1.39
[12]; first compound 0.06325 µM
  relative viability: 1.12
[12]; first compound 0.2 µM
  relative viability: 0.586
[12]; first compound 0.6325 µM
  relative viability: 0.383
[12]; first compound 2 µM
  relative viability: 0.238
[13]; first compound 0.06325 µM
  relative viability: 0.268
[13]; first compound 0.2 µM
  relative viability: 0.219
[13]; first compound 0.6325 µM
  relative viability: 0.256
[13]; first compound 2 µM
  relative viability: 0.235
[14]; first compound 0.02 µM
  relative viability: 0.135
[14]; first compound 0.2 µM
  relative viability: 0.103
[14]; first compound 0.6325 µM
  relative viability: 0.124
[14]; first compound 2 µM
  relative viability: 0.114
[15]; first compound 0.02 µM
  relative viability: 1.01
[15]; first compound 0.06325 µM
  relative viability: 1.1
[15]; first compound 0.2 µM
  relative viability: 0.439
[15]; first compound 0.6325 µM
  relative viability: 0.276
[15]; first compound 2 µM
  relative viability: 0.281
[16]; first compound 0.02 µM
  relative viability: 0.629
[16]; first compound 0.06325 µM
  relative viability: 0.204
[16]; first compound 0.2 µM
  relative viability: 0.449
[16]; first compound 0.6325 µM
  relative viability: 0.418
[16]; first compound 2 µM
  relative viability: 0.138
[17]; first compound 0.02 µM
  relative viability: 0.355
[17]; first compound 0.06325 µM
  relative viability: 0.259
[17]; first compound 0.2 µM
  relative viability: 0.206
[17]; first compound 0.6325 µM
  relative viability: 0.242
[17]; first compound 2 µM
  relative viability: 0.143
[9]; 0.02 µM
  relative viability: 0.947
[9]; 0.06325 µM
  relative viability: 0.804
[9]; 0.2 µM
  relative viability: 0.56
[9]; 0.6325 µM
  relative viability: 0.357
[9]; 2 µM
  relative viability: 0.212
